Reference: article PMC5995969, “Structural basis for the regulation of human 5,10-methylenetetrahydrofolate reductase by phosphorylation and S-adenosylmethionine inhibition” (Nature Communications, 2018)

Tests used:
mouse MTHFR = target: T1, mouse MTHFR (Mus musculus, UniProt Q9WU20); assay: analytical size exclusion chromatography / DSF; assay type: binding
T1 sequence (Q9WU20 357-654): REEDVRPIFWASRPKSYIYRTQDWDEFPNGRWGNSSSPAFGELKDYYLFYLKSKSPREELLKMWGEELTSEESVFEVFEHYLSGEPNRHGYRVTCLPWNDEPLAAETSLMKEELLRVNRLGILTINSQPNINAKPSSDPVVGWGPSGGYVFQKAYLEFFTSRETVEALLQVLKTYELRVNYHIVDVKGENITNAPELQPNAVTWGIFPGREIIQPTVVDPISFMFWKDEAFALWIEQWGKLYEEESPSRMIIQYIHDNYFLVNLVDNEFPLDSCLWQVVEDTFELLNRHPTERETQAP

[1] = target: T2, 5,10-methylenetetrahydrofolate reductase (MTHFR) (Homo sapiens, UniProt P42898); assay: HPLC-based enzyme activity assay; also native MS, DSF and aSEC; assay type: biochemical; conditions: read-out: Inhibition (μM) / SAM Ki (95% CI)
T2 construct: HsMTHFR1–656 (phosphorylated, as purified)

[2] = target: T3, 5,10-methylenetetrahydrofolate reductase (MTHFR) (Homo sapiens, UniProt P42898, A368L); assay: differential scanning fluorimetry; aSEC; assay type: binding
T3 construct: HsMTHFR348–656
T3 sequence (P42898 348-656 A368L): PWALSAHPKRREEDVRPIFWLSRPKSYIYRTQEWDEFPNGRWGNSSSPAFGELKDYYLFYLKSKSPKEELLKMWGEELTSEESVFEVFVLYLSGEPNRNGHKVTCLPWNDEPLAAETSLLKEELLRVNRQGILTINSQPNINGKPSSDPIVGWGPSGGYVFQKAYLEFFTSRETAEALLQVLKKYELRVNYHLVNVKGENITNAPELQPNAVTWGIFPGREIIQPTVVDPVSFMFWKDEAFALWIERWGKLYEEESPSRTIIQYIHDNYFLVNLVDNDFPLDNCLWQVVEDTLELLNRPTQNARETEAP

Ki [1]	Structure (SMILES)	analytical size exclusion chromatography / DSF (mouse MTHFR)	differential scanning fluorimetry; aSEC [2]
	Nc1ncnc2c1ncn2[C@@H]1O[C@H](CSCC[C@H](N)C(=O)O)[C@@H](O)[C@H]1O [SAH, S-adenosylhomocysteine]	A similar pattern of results were observed when using purified recombinant mouse MTHFR of the same protein boundaries	
2.7 µM	C[S+](CC[C@H](N)C(=O)[O-])C[C@H]1O[C@@H](n2cnc3c(N)ncnc32)[C@H](O)[C@@H]1O (stereo partly shown) [SAM, S-adenosylmethionine]	A similar pattern of results were observed when using purified recombinant mouse MTHFR of the same protein boundaries	p.A368L resulted in protein which retained the ability to bind SAM, but was less sensitive to change
